Measurements taken from patent US9810690B2, “Method for screening inhibitors of Ras” (Araxes Pharma LLC, priority 2015, dated 2017).

Legend:
Assay type in all cases: binding
KRAS D92C/WT = molecular target: T1, KRAS D92C/WT (Homo sapiens, UniProt P01116, D92C); assay: Covalent modification of KRAS mutant by competition probes (TOF mass spectrometry, Agilent RapidFire)
T1 construct: made in house
Protocol: (§1) KRAS mutant proteins were produced with one substituted amino acid selected from E62C, D92C, and H95C and with either glycine at the 12 position (WT) or an additional mutation to aspartic acid at the 12 position (G12D) relative to SEQ ID NO: 1 when optimally aligned. These mutations are depicted on an X-ray crystal structure in FIG. 2. These mutants were tested for reactivity (e.g., covalent modification of the KRAS mutant) with a panel of competition probes that bind the Switch II binding pocket and covalently modify the substituted amino acid with appropriately placed electrophiles based on modeling/docking studies. Screening was carried out by time-of-flight (TOF) mass spectrometry on an Agilent RapidFire system. […] Competition probe reactivity with the G12D mutant or other 12 position mutants may be optimized by iterative structural modification and testing.

KRAS E62C/G12D = molecular target: T2, KRAS E62C/G12D (Homo sapiens, UniProt P01116, E62C/G12D); assay: as above
T2 construct: made in house
Protocol: as §1

KRAS E62C/WT = molecular target: T3, KRAS E62C/WT (Homo sapiens, UniProt P01116, E62C); assay: as above
T3 construct: made in house
Protocol: as §1

KRAS H95C/G12D = molecular target: T4, KRAS H95C/G12D (Homo sapiens, UniProt P01116, G12D/H95C); assay: as above
T4 construct: made in house
Protocol: as §1

RALA G23C = molecular target: T5, RALA G23C (Homo sapiens, UniProt P11233, G23C); assay: Rate constant of covalent reaction of competition probes with RALA mutant (mass spectrometry)
T5 construct: (residues 11-183, either WT or G23C); hexahistidine (TEV-cleavable); made in house; host or cells: Escherichia coli BL21 (DE)
T5 sequence (P11233 11-183 G23C): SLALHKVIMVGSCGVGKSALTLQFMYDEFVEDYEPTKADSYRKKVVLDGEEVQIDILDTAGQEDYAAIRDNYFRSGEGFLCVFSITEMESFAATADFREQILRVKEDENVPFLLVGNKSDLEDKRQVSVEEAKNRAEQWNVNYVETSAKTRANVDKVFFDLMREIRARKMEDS
Protocol: Hexahistidine-tagged recombinant human RalA (“hexahistidine” disclosed as SEQ ID NO: 49) (residues 11-183, either WT or G23C) was transformed into Escherichia coli (BL21 (DE)). After the bacterial grew to an OD(600) of 0.4-0.6 in Terrific Broth containing 30 mg/L kanamycin at 37° C., induction was carried out at 18° C. using 0.5 mM IPTG and growth was continued at 18° C. for about 18 h. The bacteria were harvested by centrifugation and the obtained pellet was either stored at −80° C. or used freshly for the subsequent steps.
(§2) RALA mutant proteins were produced with one mutation to cysteine at the 23 position (G23C) relative to SEQ ID NO: 8 when optimally aligned. KRAS mutant proteins were produced with one mutation to cysteine at the 12 position (G12C) relative to SEQ ID NO: 1 when optimally aligned. The RALA and KRAS mutants were tested for reactivity (e.g., covalent modification of the mutant) with a panel of competition probes that bind the Switch II binding pocket and covalently modify the substituted amino acid with appropriately placed electrophiles based on modeling/docking studies. One such inhibitor covalently bound to RAS (via G12) is depicted in FIG. 2. Screening was carried out by mass spectrometry on an Agilent RapidFire or ThermoScientific Q Exactive system.

KRAS G12C = molecular target: T6, KRAS G12C (Homo sapiens, UniProt P01116, G12C); assay: Rate constant of covalent reaction of competition probes with KRAS mutant (mass spectrometry)
T6 construct: made in house
Protocol: as §2

KRAS D92C/G12D = molecular target: T7, KRAS D92C/G12D (Homo sapiens, UniProt P01116, D92C/G12D); assay: Covalent modification of KRAS mutant by competition probes (TOF mass spectrometry, Agilent RapidFire); conditions: probe 30 μM
T7 construct: made in house
Protocol: as §1

KRAS H95C/WT = molecular target: T8, KRAS H95C/WT (Homo sapiens, UniProt P01116, H95C); assay: as above; conditions: probe 30 μM
T8 construct: made in house
Protocol: as §1

| Rate Constant for Reaction with Indicated Protein, RALA G23C (RALA G23C) [M⁻¹ s⁻¹] | Rate Constant for Reaction with Indicated Protein, KRAS G12C (KRAS G12C) [M⁻¹ s⁻¹] | % Covalent Modification with Indicated Protein at 6 hr, D92C/G12D (KRAS D92C/G12D) [%] | % Covalent Modification with Indicated Protein at 6 hr, D92C/WT (KRAS D92C/WT; probe 30 μM) [%] | % Covalent Modification with Indicated Protein at 6 hr, E62C/G12D (KRAS E62C/G12D; probe 30 μM) [%] | % Covalent Modification with Indicated Protein at 6 hr, E62C/WT (KRAS E62C/WT; probe 30 μM) [%] | % Covalent Modification with Indicated Protein at 6 hr, H95C/G12D (KRAS H95C/G12D; probe 30 μM) [%] | Compound | further results |
| --- | --- | --- | --- | --- | --- | --- | --- | --- |
| – | – | 8 | 89 | 11 | 86 | 12 | C=CS(=O)(=O)NC1CCN(c2nc(N3CCN(C(C)=O)CC3)c3cc(Cl)c(-c4c(O)cccc4F)c(F)c3n2)C1 (stereo not drawn) [CP-003] | – |
| – | – | 12 | 97 | 4 | 72 | 60 | C=CS(=O)(=O)NC1CCCN(c2nc(N3CCN(C(C)=O)CC3)c3cc(Cl)c(-c4c(O)cccc4F)c(F)c3n2)C1 (stereo not drawn) [CP-001] | – |

The next lines start with the compound.

| Compound | Rate Constant for Reaction with Indicated Protein, RALA G23C (RALA G23C) [M⁻¹ s⁻¹] | Rate Constant for Reaction with Indicated Protein, KRAS G12C (KRAS G12C) [M⁻¹ s⁻¹] | % Covalent Modification with Indicated Protein at 6 hr, D92C/G12D (KRAS D92C/G12D) [%] | % Covalent Modification with Indicated Protein at 6 hr, D92C/WT (KRAS D92C/WT; probe 30 μM) [%] | % Covalent Modification with Indicated Protein at 6 hr, E62C/G12D (KRAS E62C/G12D; probe 30 μM) [%] | % Covalent Modification with Indicated Protein at 6 hr, E62C/WT (KRAS E62C/WT; probe 30 μM) [%] | % Covalent Modification with Indicated Protein at 6 hr, H95C/G12D (KRAS H95C/G12D; probe 30 μM) [%] | further results |
| --- | --- | --- | --- | --- | --- | --- | --- | --- |
| C=CC(=O)NC1CCN(c2nc(N3CCN(C(C)=O)CC3)c3cc(Cl)c(-c4c(O)cccc4F)c(F)c3n2)C1 (stereo not drawn) [CP-004] | – | – | – | – | – | – | – | % Covalent Modification with Indicated Protein at 6 hr, D92C/WT (KRAS D92C/WT; probe 100 μM): 4%; % Covalent Modification with Indicated Protein at 6 hr, E62C/G12D (KRAS E62C/G12D; probe 100 μM): 1%; % Covalent Modification with Indicated Protein at 6 hr, E62C/WT (KRAS E62C/WT; probe 100 μM): 3%; % Covalent Modification with Indicated Protein at 6 hr, H95C/G12D (KRAS H95C/G12D; probe 100 μM): 2% |
| C=CC(=O)N1CCN(c2ncnc3cc(Cl)c(-c4ccccc4Cl)cc23)CC1 [CP-011] | 5.0 | 1.1 | – | – | – | – | – | – |
| C=CC(=O)N1CCN(c2ncnc3c(F)c(-c4c(O)cccc4F)c(Cl)cc23)CC1 [CP-012] | <1 | 310 | – | – | – | – | – | – |
| C=CC(=O)N1CCC(Nc2nc(N3CCN(C(C)=O)CC3)c3cc(Cl)c(-c4c(O)cccc4F)c(F)c3n2)C1 (stereo not drawn) [CP-006] | – | – | 5 | 93 | 2 | 14 | 4 | % Covalent Modification with Indicated Protein at 6 hr, H95C/WT (KRAS H95C/WT): 19% |
| C=CS(=O)(=O)N1CCC(Nc2nc(N3CCN(C(C)=O)CC3)c3cc(Cl)c(-c4c(O)cccc4F)c(F)c3n2)CC1 [CP-005] | – | – | 11 | 28 | 6 | 82 | 12 | % Covalent Modification with Indicated Protein at 6 hr, H95C/WT (KRAS H95C/WT): 21% |
| C=CC(=O)N1CCN(c2ccc(-c3cc(O)ccc3Cl)cc2C#N)CC1 [CP-009] | <0.2 | 5.8 | – | – | – | – | – | – |
| C=CC(=O)N1CCN(c2ncnc3cc(Cl)c(-c4ccc(Cl)cc4)cc23)CC1 [CP-013] | 10.2 | – | – | – | – | – | – | – |
| C=CC(=O)NC1CCCN(c2nc(N3CCN(C(C)=O)CC3)c3cc(Cl)c(-c4c(O)cccc4F)c(F)c3n2)C1 (stereo not drawn) [CP-002] | – | – | – | – | – | – | – | % Covalent Modification with Indicated Protein at 6 hr, D92C/WT (KRAS D92C/WT; probe 100 μM): 2%; % Covalent Modification with Indicated Protein at 6 hr, E62C/G12D (KRAS E62C/G12D; probe 100 μM): 1%; % Covalent Modification with Indicated Protein at 6 hr, E62C/WT (KRAS E62C/WT; probe 100 μM): 6%; % Covalent Modification with Indicated Protein at 6 hr, H95C/G12D (KRAS H95C/G12D; probe 100 μM): 5% |
| C=CC(=O)N1CC(N2CCN(C(=O)CNc3cc(C4(C)CC4)c(Cl)cc3O)CC2)C1 [CP-008] | <0.2 | 76 | – | – | – | – | – | – |
